Measured values: US20080200515A1, “SOLID STATE FORMS OF ENANTIOPURE ILAPRAZOLE” (TAP PHARMACEUTICAL PRODUCTS INC., priority 2006, published 2008)

Columns and labels:
[1] = system: acid-related gastric and duodenal ulcers; experiment: Phase 2 clinical studies with ilaprazole in patients with gastric-acid related disorders; assay type: in vivo, human; conditions: at the doses studied
gastric acid = experiment: Phase 1 clinical studies with ilaprazole: suppression of gastric acid; assay type: in vivo, human; conditions: at the doses studied

COc1ccnc(C[S+]([O-])c2nc3cc(-n4cccc4)ccc3[nH]2)c1C (stereo not drawn) [ilaprazole, 2[[(4-methoxy-3-methyl-2-pyridinyl)-methyl]sulfinyl]-5-(1H-pyrrol-1-yl) 1H-Benzimidazole] was tested, and the “healing of acid-related gastric and duodenal ulcers” value [1] was “promoted rapid healing”, the symptomatic relief ([1]; patients with gastric-acid related disorders) was “provided symptomatic relief” and the “suppression of gastric acid” value (gastric acid) was “suppression of gastric acid occurs over a 24-hour period”.
